Assay results reported in patent US11623919B2, “Heterocyclic P2X7 antagonists” (AXXAM S.P.A., priority 2017, dated 2023).

Tests used:
Assay in all cases: Screen Quest Fluo-8 No Wash Calcium Assay (Bz-ATP evoked Ca2+ influx, FLIPR)
Assay type in all cases: cell-based
P2X7 receptor [1] = target: T1, P2X7 receptor (Homo sapiens, UniProt Q99572); set-up: hP2X7 (IC50; nM); other: hP2X7; HEK-293 cells stably transfected with P2X7 receptor, Bz-ATP at EC80, Fluo-8 NW; potency; conditions: hP2X7; HEK-293 cells stably transfected with P2X7 receptor, Bz-ATP at EC80, Fluo-8 NW; potency ranges A-D
T1 sequence (Q99572 1-595): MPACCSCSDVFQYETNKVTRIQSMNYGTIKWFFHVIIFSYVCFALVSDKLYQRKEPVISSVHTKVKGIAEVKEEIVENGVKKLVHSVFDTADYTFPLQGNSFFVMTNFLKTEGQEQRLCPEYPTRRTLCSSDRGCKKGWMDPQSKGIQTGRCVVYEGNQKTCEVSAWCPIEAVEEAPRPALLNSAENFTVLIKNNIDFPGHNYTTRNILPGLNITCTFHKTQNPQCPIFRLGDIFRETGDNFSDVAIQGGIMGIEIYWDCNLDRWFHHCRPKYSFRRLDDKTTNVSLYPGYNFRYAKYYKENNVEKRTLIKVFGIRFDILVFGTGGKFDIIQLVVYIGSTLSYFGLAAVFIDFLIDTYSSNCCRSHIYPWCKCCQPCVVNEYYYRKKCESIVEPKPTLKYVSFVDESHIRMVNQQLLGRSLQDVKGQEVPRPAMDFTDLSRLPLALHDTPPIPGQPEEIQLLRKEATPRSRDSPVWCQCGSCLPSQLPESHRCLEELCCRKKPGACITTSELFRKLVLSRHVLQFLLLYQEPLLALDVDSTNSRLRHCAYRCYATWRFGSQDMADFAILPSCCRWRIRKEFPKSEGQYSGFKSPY
Experimental: (§1) Extracellular binding of Bz-ATP to P2X7 receptor opens the channel and allows Ca2+ influx into the cells. […] Once inside the cell, the lipophilic blocking groups of Fluo-8 are cleaved by non-specific cell esterases, resulting in a negatively-charged fluorescent dye that stays inside cells. Its fluorescence increases upon binding to calcium.
(§2) HEK-293 cells stably transfected with P2X7 receptor were seeded overnight in growth medium at 10,000 to 20,000 cell/well in 384-well plate. 24 hours later, the medium was removed and the cells were pre-loaded at RT for 1 hour with 20 μL/w of Fluo-8 NW. Then 10 μL/w of tests compounds and reference antagonist A438079 at 3×-concentration were injected with the […] and the kinetic response over a period of five minutes was monitored. A second injection of 15 μL/w of 3× reference activator (Bz-ATP at EC80) was performed with the […] and the signal of the emitted fluorescence was recorded for additional three minutes. All the experiment was carried out in a Low Divalent Cation Assay Buffer (0.3 mM Ca^2+ and 0 mM Mg^2+). The effect of the test compounds was measured as percent inhibition vs the reference antagonist and IC50 values were calculated accordingly.

P2X7 receptor [2] = target: T2, P2X7 receptor (Rattus norvegicus, UniProt Q64663); conditions: rP2X7; HEK-293 cells stably transfected with P2X7 receptor, Bz-ATP at EC80, Fluo-8 NW; potency ranges A-D
T2 construct: rP2X7 (IC50; nM); other: rP2X7; HEK-293 cells stably transfected with P2X7 receptor, Bz-ATP at EC80, Fluo-8 NW; potency
T2 sequence (Q64663 1-595): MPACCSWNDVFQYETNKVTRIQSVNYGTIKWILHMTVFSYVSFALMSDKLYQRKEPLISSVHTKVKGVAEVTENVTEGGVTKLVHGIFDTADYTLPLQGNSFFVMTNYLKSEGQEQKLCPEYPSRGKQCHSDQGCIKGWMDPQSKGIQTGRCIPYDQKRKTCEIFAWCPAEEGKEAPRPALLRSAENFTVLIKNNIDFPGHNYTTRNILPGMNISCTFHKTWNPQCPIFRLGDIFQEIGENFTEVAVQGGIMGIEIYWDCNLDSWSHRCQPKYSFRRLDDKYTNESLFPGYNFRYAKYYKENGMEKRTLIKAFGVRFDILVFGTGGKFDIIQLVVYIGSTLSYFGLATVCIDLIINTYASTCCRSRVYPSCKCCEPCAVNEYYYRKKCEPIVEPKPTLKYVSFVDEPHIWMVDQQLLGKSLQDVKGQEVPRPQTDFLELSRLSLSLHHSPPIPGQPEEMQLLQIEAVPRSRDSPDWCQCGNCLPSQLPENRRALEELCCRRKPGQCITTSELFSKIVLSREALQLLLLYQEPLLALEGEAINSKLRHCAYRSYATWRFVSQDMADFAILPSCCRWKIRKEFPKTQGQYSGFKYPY
Experimental: as §1, §2

P2X7 receptor [3] = target: T3, P2X7 receptor (Mus musculus, UniProt Q9Z1M0); conditions: mP2X7; HEK-293 cells stably transfected with P2X7 receptor, Bz-ATP at EC80, Fluo-8 NW; potency ranges A-D
T3 construct: mP2X7 (IC50; nM); other: mP2X7; HEK-293 cells stably transfected with P2X7 receptor, Bz-ATP at EC80, Fluo-8 NW; potency
T3 sequence (Q9Z1M0 1-595): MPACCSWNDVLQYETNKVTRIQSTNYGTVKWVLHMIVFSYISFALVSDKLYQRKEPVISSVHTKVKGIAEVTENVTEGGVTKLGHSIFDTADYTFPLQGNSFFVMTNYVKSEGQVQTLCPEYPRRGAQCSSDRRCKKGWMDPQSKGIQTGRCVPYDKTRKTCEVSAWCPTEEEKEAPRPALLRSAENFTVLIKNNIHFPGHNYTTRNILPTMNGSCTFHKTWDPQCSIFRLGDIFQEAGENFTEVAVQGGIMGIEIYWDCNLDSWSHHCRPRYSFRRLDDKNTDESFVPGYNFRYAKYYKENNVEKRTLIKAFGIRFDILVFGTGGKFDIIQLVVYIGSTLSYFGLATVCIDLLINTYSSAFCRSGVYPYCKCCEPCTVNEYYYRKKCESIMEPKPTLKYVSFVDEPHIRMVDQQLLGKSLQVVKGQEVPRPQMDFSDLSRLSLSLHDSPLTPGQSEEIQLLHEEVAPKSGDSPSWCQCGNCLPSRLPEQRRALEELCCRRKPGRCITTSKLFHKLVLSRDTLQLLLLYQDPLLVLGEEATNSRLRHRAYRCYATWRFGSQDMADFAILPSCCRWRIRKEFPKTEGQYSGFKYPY
Experimental: as §1, §2

| Structure (SMILES) | IC50 (P2X7 receptor [1]) [nM] | IC50 (P2X7 receptor [2]) [nM] | IC50 (P2X7 receptor [3]) [nM] |
| --- | --- | --- | --- |
| COc1ccc(Cn2c(Cc3ccc(F)cc3)noc2=O)cc1 [Example 3, 3-[(4-fluorophenyl)methyl]-4-[(4-methoxyphenyl)methyl]-4,5-dihydro-1,2,4-oxadiazol-5-one] | > 10000 | > 10000 | > 10000 |
| COc1cc(Cn2c(Cc3ccc(F)cc3)noc2=O)cc(OC)c1 [Example 4, 4-[(3,5-dimethoxyphenyl)methyl]-3-[(4-fluorophenyl)methyl]-4,5-dihydro-1,2,4-oxadiazol-5-one] | > 10000 | > 10000 | > 10000 |
| O=c1onc(Cc2cccc(Cl)c2Cl)n1Cc1c(F)cccc1Cl [Example 13, 4-[(2-chloro-6-fluorophenyl)methyl]-3-[(2,3-dichlorophenyl)methyl]-4,5-dihydro-1,2,4-oxadiazol-5-one] | 1000 to 10000 | 1000 to 10000 | 1000 to 10000 |
| O=c1onc(Cc2ccc(F)cc2F)n1Cc1c(F)cccc1Cl [Example 15, 4-[(2-chloro-6-fluorophenyl)methyl]-3-[(2,4-difluorophenyl)methyl]-4,5-dihydro-1,2,4-oxadiazol-5-one] | 1000 to 10000 | 1000 to 10000 | 1000 to 10000 |
| O=c1onc(Cc2cccc(C(F)(F)F)c2Cl)n1Cc1c(F)cccc1Cl [Example 16, 3-{[2-chloro-3-(trifluoromethyl)phenyl]methyl}-4-[(2-chloro-6-fluorophenyl)methyl]-4,5-dihydro-1,2,4-oxadiazol-5-one] | 1000 to 10000 | 1000 to 10000 | > 10000 |
| O=c1onc(Cc2ccc(Cl)cc2Cl)n1Cc1c(F)cccc1Cl [Example 17, 4-[(2-chloro-6-fluorophenyl)methyl]-3-[(2,4-dichlorophenyl)methyl]-4,5-dihydro-1,2,4-oxadiazol-5-one] | 1000 to 10000 | 1000 to 10000 | 1000 to 10000 |
| O=c1onc(Cc2c(F)cccc2Cl)n1Cc1c(F)cccc1Cl [Example 18, bis[(2-chloro-6-fluorophenyl)methyl]-4,5-dihydro-1,2,4-oxadiazol-5-one] | 1000 to 10000 | 1000 to 10000 | 1000 to 10000 |
| O=c1onc(Cc2ccccc2F)n1Cc1c(F)cccc1Cl [Example 19, 4-[(2-chloro-6-fluorophenyl)methyl]-3-[(2-fluorophenyl)methyl]-4,5-dihydro-1,2,4-oxadiazol-5-one] | 1000 to 10000 | 1000 to 10000 | > 10000 |
| O=c1onc(Cc2ccccc2Cl)n1Cc1c(F)cccc1Cl [Example 20, 4-[(2-chloro-6-fluorophenyl)methyl]-3-[(2-chlorophenyl)methyl]-4,5-dihydro-1,2,4-oxadiazol-5-one] | 1000 to 10000 | 1000 to 10000 | 1000 to 10000 |

Results, then the compound that gave them:

| IC50 (P2X7 receptor [1]) [nM] | IC50 (P2X7 receptor [2]) [nM] | IC50 (P2X7 receptor [3]) [nM] | Structure (SMILES) |
| --- | --- | --- | --- |
| < 200 | < 200 | 200 to 1000 | O=c1onc(Cc2c(F)cccc2Cl)n1CC1CCC(F)(F)C1 (single isomer, unassigned) [Example 148, 3-(2-chloro-6-fluorobenzyl)-4-[(3,3-difluorocyclopentyl)methyl]-1,2,4-oxadiazol-5(4H)-one] |
| 1000 to 10000 | > 10000 | > 10000 | COc1ccc(Cn2c(Cc3ccc(F)cc3)noc2=O)c(OC)c1 [Example 2, 4-[(2,4-dimethoxyphenyl)methyl]-3-[(4-fluorophenyl)methyl]-4,5-dihydro-1,2,4-oxadiazol-5-one] |
| 1000 to 10000 | > 10000 | > 10000 | O=c1onc(Cc2ccc(F)cc2)n1Cc1cc(F)ccc1Br [Example 5, 4-[(2-bromo-5-fluorophenyl)methyl]-3-[(4-fluorophenyl)methyl]-4,5-dihydro-1,2,4-oxadiazol-5-one] |
| 1000 to 10000 | 1000 to 10000 | 1000 to 10000 | O=c1onc(Cc2ccccc2)n1Cc1c(F)cccc1Cl [Example 6, 3-benzyl-4-[(2-chloro-6-fluorophenyl)methyl]-4,5-dihydro-1,2,4-oxadiazol-5-one] |
| 1000 to 10000 | > 10000 | 1000 to 10000 | COc1cccc(Cc2noc(=O)n2Cc2c(F)cccc2Cl)c1 [Example 7, 4-[(2-chloro-6-fluorophenyl)methyl]-3-[(3-methoxyphenyl)methyl]-4,5-dihydro-1,2,4-oxadiazol-5-one] |
| 1000 to 10000 | > 10000 | > 10000 | Cc1ncsc1Cn1c(Cc2ccc(F)cc2)noc1=O [Example 8, 3-[(4-fluorophenyl)methyl]-4-[(4-methyl-1,3-thiazol-5-yl)methyl]-4,5-dihydro-1,2,4-oxadiazol-5-one] |
| 200 to 1000 | 1000 to 10000 | > 10000 | O=c1onc(Cc2ccc(F)cc2)n1Cc1ccc(Cl)cc1Cl [Example 9, 4-[(2,4-dichlorophenyl)methyl]-3-[(4-fluorophenyl)methyl]-4,5-dihydro-1,2,4-oxadiazol-5-one] |
| 200 to 1000 | 1000 to 10000 | > 10000 | CC(c1ccccc1)n1c(Cc2ccc(F)cc2)noc1=O (stereo not drawn) [Example 10, 3-[(4-fluorophenyl)methyl]-4-(1-phenylethyl)-4,5-dihydro-1,2,4-oxadiazol-5-one] |
| 1000 to 10000 | 1000 to 10000 | 1000 to 10000 | CC(c1ccc(F)cc1)n1c(Cc2ccc(F)cc2)noc1=O (stereo not drawn) [Example 11, 4-[1-(4-fluorophenyl)ethyl]-3-[(4-fluorophenyl)methyl]-4,5-dihydro-1,2,4-oxadiazol-5-one] |
| 1000 to 10000 | 200 to 1000 | 200 to 1000 | O=c1onc(Cc2ccc(F)cc2)n1CC1CCCCC1 [Example 12, 4-(cyclohexylmethyl)-3-[(4-fluorophenyl)methyl]-4,5-dihydro-1,2,4-oxadiazol-5-one] |
| 200 to 1000 | 1000 to 10000 | 1000 to 10000 | O=c1onc(Cc2ccc(F)cc2Cl)n1Cc1c(F)cccc1Cl [Example 14, 3-[(2-chloro-4-fluorophenyl)methyl]-4-[(2-chloro-6-fluorophenyl)methyl]-4,5-dihydro-1,2,4-oxadiazol-5-one] |
